Article PMC8146408 (Viruses, 2021)
≈ marks a conversion by molar mass, not a printed value.

Experiments:
Cytotoxicity assay (XTT) = type: cell-based; conditions: human, HepG2 cells, XTT; mean ± SD, at least two independent experiments; read-out: CC50 (concentration of a compound causing 50% cytotoxicity)
HepG2 cells = assay: Cytotoxicity assay (XTT); type: cell-based; conditions: for Concentration without cytotoxicity: cytotoxicity assay
HBV Cp (C150 dimer) = biological target: T1, HBV Cp (C150 dimer) (Hepatitis B virus genotype D subtype adw, UniProt P03147, R150C); assay: Thermal shift assay (TSA); type: binding; conditions: 20 µM compound, 1% DMSO
T1 construct: made in house; host or cells: E. coli BL21 (DE3), pET11a
T1 sequence (P03147 1-150 R150C): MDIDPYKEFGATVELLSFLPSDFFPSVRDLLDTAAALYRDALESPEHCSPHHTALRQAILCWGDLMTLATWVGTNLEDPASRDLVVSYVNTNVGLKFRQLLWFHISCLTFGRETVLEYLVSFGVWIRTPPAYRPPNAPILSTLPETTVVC

[1] = Microsomal stability, mouse liver microsomes; type: in vitro ADME; conditions: pH 7.4, cofactor NADPH, n = 3, read-out: Microsomal Stability t1/2
[2] = Aqueous solubility (thermodynamic, DPBS); type: physicochemical; conditions: Dulbecco's Phosphate-Buffered Saline (DPBS), aqueous buffer, thermodynamic from solid, pH 7.2, n = 3
[3] = Plasma stability, mouse plasma; type: in vitro ADME; conditions: CD-1, pH 7.4, n = 3, read-out: Plasma Stability t1/2
[4] = Microsomal stability, human liver microsomes; type: in vitro ADME; conditions: pH 7.4, cofactor NADPH, n = 3, read-out: Microsomal Stability t1/2
[5] = Plasma stability, human plasma; type: in vitro ADME; conditions: pH 7.4, n = 3, read-out: Plasma Stability t1/2
HBV replication = assay: Antiviral assay (HBV replication luciferase reporter in HuH-7 cells); type: cell-based, Hepatitis B virus; conditions: mean ± SD, at least two independent experiments

Q: With `Cc1cn2c(C)c(C(=O)Nc3ccc(F)c(C)c3)cnc2n1` [ZW-1842] as the molecule, how does the CC50 (Cytotoxicity assay (XTT)) read?
A: Its CC50 is greater than 100 µM.

Q: What does the source list for `CC1Oc2c(cccc2C(=O)Nc2cccc(C(F)F)c2)NC1=O` (centres unmarked) [ZW-1888]?
A: CC50 (Cytotoxicity assay (XTT)): 47 µM; CC50 (HepG2 cells; HepG2 cells, XTT, mean ± SD, at least two independent experiments, read-out: CC50 (concentration of a compound causing 50% cytotoxicity)): 46.6 ± 2.4 µM; TSA profile (effect on HBV Cp melting curve) (HBV Cp (C150 dimer)): bind to HBV Cp and affect capsid formation and stability

Q: Which CC50 (Cytotoxicity assay (XTT)) does the source give for `Cc1cc(C)c(CNC(=O)c2cn(Cc3ccccc3)nc2-c2ccccc2)c(=O)[nH]1` [ZW-1918] here?
A: Its CC50 is 47.6 ± 0.2 µM.

Q: For `Cc1cc(NC(=O)c2c(C)[nH]c(=O)c3c(N)n[nH]c23)ccc1F` [ZW-1847], which half-life at 1 µM [1] is on record?
A: Its half-life at 1 µM is greater than 2 h.

Q: And the solubility at 72 h [2]?
A: Its solubility at 72 h is 2.14 ± 0.03 µM (≈ 0.675 µg/mL).

Q: And the CC50 (Cytotoxicity assay (XTT))?
A: The CC50 was greater than 100 µM.

Q: What about the Concentration without cytotoxicity (HepG2 cells) of the same molecule?
A: Its Concentration without cytotoxicity is no less than 100 µM.

Q: And the “TSA profile (effect on HBV Cp melting curve)” value (HBV Cp (C150 dimer))?
A: Its value is “bind to HBV Cp and affect capsid formation and stability”.

Q: What about the half-life at 1 µM [3] of the same molecule?
A: Its half-life at 1 µM is greater than 6 h.

Q: And the half-life at 1 µM [4]?
A: The half-life at 1 µM was greater than 2 h.

Q: What about the half-life at 1 µM [5] of the same molecule?
A: Its half-life at 1 µM is greater than 6 h.

Q: And the “EC50 (concentration of a compound inhibiting HBV replication by 50%)” value (HBV replication)?
A: Its value is “single-digit”.

Q: For `COc1cccc(N2CC(C(=O)Nc3cccc(Cl)c3C)CC2=O)c1` (centres unmarked) [ZW-1929], which CC50 (Cytotoxicity assay (XTT)) is on record?
A: Its CC50 is 41.3 ± 1.7 µM.

Q: For `Cc1cccc(NC(=O)c2cccc(CN3C(=O)CNC3=O)c2)c1` [ZW-1946], which CC50 (Cytotoxicity assay (XTT)) is on record?
A: Its CC50 is 44.1 ± 0.6 µM.

Q: For `Cc1cc(NC(=O)c2cc(C#N)c(=O)[nH]c2C)ccc1F` [ZW-1840], which CC50 (Cytotoxicity assay (XTT)) is on record?
A: The CC50 was greater than 100 µM.

Q: With `CC1=C(C(=O)Nc2ccc(F)c(C)c2)C=Nc2ccccc2N1` [ZW-1843] as the molecule, how does the CC50 (Cytotoxicity assay (XTT)) read?
A: Its CC50 is greater than 100 µM.

Q: Which CC50 (Cytotoxicity assay (XTT)) does the source give for `O=C1NC2(CCCC2)C(=O)N1Cc1cn(-c2ccccc2)nc1-c1ccccc1` [ZW-1889] here?
A: Its CC50 is 58.2 ± 5.6 µM.

Q: Which CC50 (Cytotoxicity assay (XTT)) does the source give for `CSc1c(C(=O)Nc2ccc(F)c(C)c2)c(C)[nH]c(=O)c1C#N` [ZW-1845] here?
A: The CC50 was greater than 100 µM.

Q: Which results are given for `Cc1cc(NC(=O)c2cnc3nc4ccccc4n3c2C)ccc1F` [ZW-1841]?
A: half-life at 1 µM [1]: 0.543 ± 0.0267 h; solubility at 72 h [2]: 0.31 ± 0.03 µM (≈ 0.104 µg/mL); CC50 (Cytotoxicity assay (XTT)): > 100 µM; Concentration without cytotoxicity (HepG2 cells): ≥ 100 µM; TSA profile (effect on HBV Cp melting curve) (HBV Cp (C150 dimer)): bind to HBV Cp and affect capsid formation and stability; half-life at 1 µM [3]: > 6 h; half-life at 1 µM [4]: > 2 h; half-life at 1 µM [5]: > 6 h; EC50 (concentration of a compound inhibiting HBV replication by 50%) (HBV replication): single-digit
